Values of other authors as cited in patent US20170333424A1, “Amorphous Vortioxetine Hydrobromide” (Hexal AKTIENGESELLSCHAFT, priority 2014, published 2017).
Structures can show the parent of a compound that is named as a salt.

Conditions: class II means high permeability, but low solubility

BCS class: class II
Structure (SMILES): Cc1ccc(Sc2ccccc2N2CCNCC2)c(C)c1 [vortioxetine hydrobromide]
